According to patent publication US8022036B2, “Use of thymosin alpha 1 for the treatment of immunological diseases” (Sigma-Tau Industrie Farmaceutiche Riunite S.p.A., priority 2006, dated 2011):
No end group written: not given here.

Tests used:
splenic CD4+ T cells = assay: Th1/T reg priming in vitro of splenic CD4+ T cells by Aspergillus-pulsed DCs (ELISPOT, flow cytometry); assay type: cell-based, mouse
Experimental: IDO expression and functional activity were assessed as described in Nat. Immunol. 2002; 3:1097-1101. Generation, purification and activity of T reg cells Splenic CD4+ T-cells were cocultured with conidia-pulsed DCs for 5 days […] before flow cytometry or ELISPOT assay. 1-MT (Sigma-Aldrich) was used at 2 μM. CD4+CD25+ and CD4+CD25− cells (>90% pure on FACS analysis) were separated by magnetic cell sorting from lung and TLN (J. Immunol. 2006; 176:1712-1723). For T reg cell inhibition, 5×10^4 TLN T reg cells were added to 3×10^5 CD4+CD25− cells, both from transplanted mice, stimulated with 3×10^4 autologous Aspergillus conidia-pulsed spDCs or with or 1.5×10^5 allogeneic spDCs from naïve donor mice for five days before H^3-thymidine labeling. Purified peritoneal CD 11b+Gr−1+PMN (>98% pure on FACS analysis) (2×10^6) were exposed to resting conidia in the presence of 4×10^5 CD4+CD25+ for 60 min for oxidant production or 24 hours for cytokine production (J. Immunol. 2006; 176:1712-1723).
(§1) Cytokine content was assessed by enzyme-linked immunosorbent assays (Endogen Human Elisa Kits, R&D Systems and Euroclone, Milan, Italy). AID EliSpot assay kits (Amplimedical, Buttigliera Alta, Turin, Italy) were used on purified splenic CD4+ Tcells cocultured with conidia-pulsed DCs for 5 days to enumerate cytokine-producing cells (Blood. 2003; 102:3807-3814). 1-MT was used at 2 μM.
(A) Frequency of IFN-γ-/IL-10-producing splenic CD4+ T cells activated by Aspergillus-pulsed Thymosin alpha 1-treated GM-DCs or FL-DCs. 1-MT was present in selected cultures. Plates were read with the AID-EliSpot Reader System (Amplimedical). Values are means±SE per 10^6 cells of samples from 3-5 experiments, calculated using replicates of serial twofold dilutions of cells. (*) P<0.05, conidia-exposed versus unexposed cells; (**) P<0.05, thymosin-exposed versus unexposed cells.
(B) Phenotypic analysis of CD4+ cells cultured alone (−) or as in (A). Numbers represent the percentage of double positive cells.

GM-DCs or FL-DCs [1] = assay: Phagocytosis of Aspergillus conidia by human GM- or FL-DCs; assay type: cell-based
Source text: (§2) GM-DCs or FL-DCs were obtained from purified CD14+ monocytes from healthy donors or transplanted patients (1 month post-HSCT) cultured in Iscove's modified medium for 7-9 days, in the presence of rGM-CSF (Schering-Plough, Milan, Italy) and rIL-4 (Peprotech, Inalco, Milan, Italy) or FLT3-L (Immunex Corporation, Seattle, Wash.) (Blood. 2004; 103:4232-4239). DC recovery was between 20-30% reduced in cultures from transplanted patients. Murine GM-DCs or FL-DCs were obtained from bone marrow cells for 7-9 days, as described (Blood. 2004; 103:4232-4239). Thymosin alpha 1 and sThymosin alpha 1 were added to the cultures at 20 ng/mL. DCs (>99% CD11c+ consisting of 90-95% CD8-, 5-10% CD8+, and 1-5% B220+ cells) were purified from spleens (spDCs) by magnetic-activated sorting using CD11c MicroBeads and MidiMacs (Miltenyi Biotech). DC populations were further separated into CD8−, CD8+ and B220+ fractions by means of CD8 or B220 MicroBeads (Miltenyi Biotech). DCs were pulsed in serum-free Iscove medium for 24 hours with live unopsonized Aspergillus conidia or Zymosan from Saccharomyces cerevisiae (Sigma) or CpG-ODN 2006 as described.7 Phagocytosis was done as described (Blood. 2004; 103:4232-4239). Photographs were taken using a high Resolution Microscopy Color Camera AxioCam, using the AxioVision Software Rel. 3.1 (Carl Zeiss, Milan, Italy).
(B) Phagocytosis of conidia by GM- or FL-DCs exposed (+) or not (−) to Thymosin alpha 1 from seven recipients of Tcell depleted haploidentical HSCT. The data are the means±SE and expressed as % internalization (numbers within figures). (*) P<0.05, Thymosin alpha 1-treated versus untreated cells.

GM-DCs or FL-DCs [2] = assay: Cytokine production (ELISA) by murine GM-DCs or FL-DCs with Aspergillus conidia; assay type: cell-based, mouse
Source text: as §2, §1
(B) Cytokine production (ELISA) by GM-DCs or FL-DCs cultured in serum-free medium (1×10^6 cells/mL) with unopsonized Aspergillus conidia (5×10^5/mL) for 24 hours. The IDO inhibitor 1-MT was added at 2 μM. Data are aggregated results from three independent experiments. The detection limits (pg/mL) of the assays were <16 for IL-12p70 and <12 for IL-10.

[3] = in response to Aspergillus conidia, 24 hours

For “Thymosin alpha 1: naturally occurring thymic peptide; supplied as purified, endotoxin-free sterile lyophilized acetylated polypeptide from SciClone Pharmaceuticals (Ac-SDAAVDTSSEITTKDLKEKKEVVEEAEN; UniProt P06454 2-29, looked up)”, the “priming for IL-10-producing cells by FL-DCs” value (splenic CD4+ T cells; Aspergillus-pulsed FL-DCs, 5 days coculture) was “increased priming”, the “priming for IFN-γ-/IL-10-producing CD4+ T cells by GM-DCs” value (splenic CD4+ T cells; Aspergillus-pulsed GM-DCs, 5 days coculture) was “increased priming” and the “CD4+CD25+ T cells positive for intracellular Foxp3 and surface CTLA-4” value (splenic CD4+ T cells; cultured with Thymosin alpha 1-induced DCs) was “a significant proportion of the CD4+CD25+ T cells stained positive for intracellular Foxp3 and surface CTLA-4”. For the same substance, the “phagocytosis of GM- and FL-DCs derived from patients” value (GM-DCs or FL-DCs [1]; patients one month after transplantation) was “promoted the phagocytosis”, the “phagocytosis in GM-DCs” value (GM-DCs or FL-DCs [1]; with Thymosin alpha 1 (from 30% without)) was 56% and the “phagocytosis in FL-DCs” value (GM-DCs or FL-DCs [1]; with Thymosin alpha 1 (from 32% without)) was 58%. For the same substance, the “IL-10 production by cells from TLR9-/- or IFN-aβR-/- mice” value (GM-DCs or FL-DCs [2]; GM-DCs or FL-DCs, in response to Thymosin alpha 1) was “did not occur”, the “release of IL-10 and IL-12 by FL-DCs” value (GM-DCs or FL-DCs [2]; [3]) was “IL-10, more than IL-12” and the “release of IL-12 and IL-10 by GM-DCs” value (GM-DCs or FL-DCs [2]; [3]) was “induced release of IL-12 and IL-10”.
